Measured values: US8084479B2, “Thiazole compounds and methods of use” (Amgen Inc., priority 2006, dated 2011)

molecular target: PKBα (Homo sapiens, UniProt P31749); test: PKB kinase assay (P33-labeled ATP, peptide substrate, filter plate); assay type: biochemical; conditions: PKBα enzyme (full length or kinase domain with pleckstrin domain deleted)
From the text: The kinase assay for evaluating PKB activity comprises active PKB enzymes, a PKB specific substrate, and P^33-labeled ATP. […] The phosphorylated substrate was captured by a phosphocellulose membrane filter plate (MLLIPORE) and measured by a Wallac Microbeta liquid scintillation counter (Perkin Elmer).

PKBα, sequence (P31749 118-480 limits assumed): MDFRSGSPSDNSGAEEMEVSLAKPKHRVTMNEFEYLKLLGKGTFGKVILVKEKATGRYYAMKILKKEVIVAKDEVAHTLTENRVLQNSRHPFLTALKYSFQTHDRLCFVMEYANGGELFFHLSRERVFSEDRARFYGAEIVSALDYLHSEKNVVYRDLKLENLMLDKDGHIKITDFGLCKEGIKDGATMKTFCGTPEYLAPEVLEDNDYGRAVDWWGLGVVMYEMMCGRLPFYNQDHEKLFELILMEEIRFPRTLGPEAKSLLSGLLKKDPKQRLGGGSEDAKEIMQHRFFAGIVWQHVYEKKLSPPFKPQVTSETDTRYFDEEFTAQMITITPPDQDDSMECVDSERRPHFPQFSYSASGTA

**Q.** `COCc1nc(NC[C@@H](N)Cc2ccc(Cl)c(Cl)c2)sc1-c1nc2ccncc2s1` [Example 96, N—((S)-2-Amino-3-(3,4-dichlorophenyl)propyl)-4-(methoxymethyl)-5-(thiazolo[5,4-c]pyridin-2-yl)thiazol-2-amine] was tested. Which IC50 did it give?
**A.** < 50 nM

**Q.** For `Cc1n[nH]c2ccc(-c3cnc(NC[C@@H](N)Cc4c[nH]c5ccccc45)s3)cc12` [Example 2, N—((S)-2-amino-3-(1H-indol-3-yl)propyl)-5-(3-methyl-1H-indazol-5-yl)thiazol-2-amine], which IC50 is on record?
**A.** 50 to 1000 nM

**Q.** How did the IC50 turn out when `N[C@H](CNc1ncc(-c2ccc3c(c2)CC(=O)N3)s1)Cc1ccc(C(F)(F)F)c(O)c1` [Example 209, 5-(2-((S)-2-amino-3-(3-hydroxy-4-(trifluoromethyl)phenyl)propylamino)thiazol-5-yl)indolin-2-one] was run?
**A.** 50 to 1000 nM

**Q.** Which IC50 does the source give for `N[C@H](CNc1nc(-c2cccc(F)c2)c(-c2ccc3cnccc3c2)s1)Cc1ccc(C(F)(F)F)cc1` [Example 103, N—((S)-2-amino-3-(4-(trifluoromethyl)phenyl)propyl)-4-(3-fluorophenyl)-5-(isoquinolin-6-yl)thiazol-2-amine] here?
**A.** 50 to 1000 nM

**Q.** How did the IC50 turn out when `COC(=O)c1nc(NC[C@@H](N)Cc2ccc(C(F)(F)F)cc2)sc1-c1ccc2[nH]c(=O)oc2c1` [Example 124, Methyl 2-((S)-2-Amino-3-(4-(trifluoromethyl)phenyl)propylamino)-5-(2-oxo-2,3-dihydrobenzo[d]oxazol-6-yl)thiazole-4-carboxylate] was run?
**A.** < 50 nM

**Q.** Which IC50 does the source give for `N[C@H](CNc1ncc(-c2ccc3[nH]c(=O)oc3c2)s1)Cc1ccc(C(F)(F)F)c(O)c1` [Example 210] here?
**A.** < 50 nM

**Q.** With `Cc1n[nH]c2ccc(-c3cnc(NC[C@@H](N)Cc4ccc(Cl)cc4)s3)cc12` [Example 3, N—((S)-2-amino-3-(4-chlorophenyl)propyl)-5-(3-methyl-1H-indazol-5-yl)thiazol-2-amine] as the compound, how does the IC50 read?
**A.** 50 to 1000 nM

**Q.** For `CNCc1nc(NC[C@@H](N)Cc2ccc(C(F)(F)F)cc2)sc1-c1ccc2cnccc2c1` [Example 56, N—((S)-2-amino-3-(4-(trifluoromethyl)phenyl)propyl)-5-(isoquinolin-6-yl)-4-((methylamino)methyl)thiazol-2-amine], which IC50 is on record?
**A.** 50 to 1000 nM

**Q.** How did the IC50 turn out when `COCc1nc(N(C[C@@H](N)Cc2ccc(C(F)(F)F)cc2)C(C)=O)sc1-c1nc2ccncc2s1` [Example 26, N—((S)-2-amino-3-(4-(trifluoromethyl)phenyl)propyl)-N-(4-(methoxymethyl)-5-(thiazolo[5,4-c]pyridin-2-yl)thiazol-2-yl)acetamide] was run?
**A.** 1000 to 10000 nM

**Q.** Which IC50 does the source give for `Cn1c(=O)[nH]c2ccc(-c3sc(NC[C@@H](N)Cc4ccc(F)cc4)nc3-c3ccccc3F)cc21` [Example 250, 6-(2-((S)-2-amino-3-(4-fluorophenyl)propylamino)-4-(2-fluorophenyl)thiazol-5-yl)-1-methyl-1H-benzo[d]imidazol-2(3H)-one] here?
**A.** 1000 to 10000 nM

**Q.** `N[C@H](CNc1ncc(-c2ccc3cnccc3c2)s1)Cc1ccc(NC(=O)OCc2ccccc2)cc1` [Example 223, Benzyl 4-((S)-2-amino-3-(5-(isoquinolin-6-yl)thiazol-2-ylamino)propyl)phenylcarbamate] was tested. Which IC50 did it give?
**A.** 1000 to 10000 nM

**Q.** For `N[C@H](CNc1nc(-c2ccccn2)c(-c2nc3ccncc3s2)s1)Cc1ccc(C(F)(F)F)cc1` [Example 60, N—((S)-2-amino-3-(4-(trifluoromethyl)phenyl)propyl)-4-(pyridin-2-yl)-5-(thiazolo[5,4-c]pyridin-2-yl)thiazol-2-amine], which IC50 is on record?
**A.** 1000 to 10000 nM

**Q.** For `N[C@H](CNc1ncc(-c2ccc3c(c2)CC(=O)N3)s1)Cc1ccc(O)cc1` [Example 192, 5-(2-((S)-2-amino-3-(4-hydroxyphenyl)propylamino)thiazol-5-yl)indolin-2-one], which IC50 is on record?
**A.** 1000 to 10000 nM

**Q.** With `N[C@H](CNc1ncc(-c2ccc3c(c2)C2(CC2)C(=O)N3)s1)Cc1ccc(C(F)(F)F)cc1` [Example 199, 5′-(2-((S)-2-amino-3-(4-(trifluoromethyl)phenyl)propylamino)thiazol-5-yl)spiro[cyclopropane-1,3′-indol]-2′(1′H)-one] as the compound, how does the IC50 read?
**A.** 50 to 1000 nM

**Q.** Which IC50 does the source give for `N[C@H](CNc1ncc(-c2ccc3cnccc3c2)s1)Cc1ccc(C(F)(F)F)cc1` [Example 6, N—((S)-2-amino-3-(4-(trifluoromethyl)phenyl)propyl)-5-(isoquinolin-6-yl)thiazol-2-amine] here?
**A.** < 50 nM

**Q.** Which IC50 does the source give for `CC(=O)OC[C@@H](c1ccc(C(F)(F)F)cc1)[C@H](N)CNc1ncc(-c2ccc3c(c2)CC(=O)N3)s1` [Example 248, (2S,3S)-3-amino-4-(5-(2-oxoindolin-5-yl)thiazol-2-ylamino)-2-(4-(trifluoromethyl)phenyl)butyl acetate] here?
**A.** 50 to 1000 nM

**Q.** With `N[C@H](CNc1nc(-c2cnco2)c(-c2ccc3cnccc3c2)s1)Cc1ccc(C(F)(F)F)cc1` [Example 118, N—((S)-2-Amino-3-(4-(trifluoromethyl)phenyl)propyl)-5-(isoquinolin-6-yl)-4-(oxazol-5-yl)thiazol-2-amine] as the compound, how does the IC50 read?
**A.** 50 to 1000 nM

**Q.** `COc1cc(C[C@H](N)CNc2ncc(-c3ccc4c(c3)CC(=O)N4)s2)cnc1C(F)(F)F` [Example 174, 5-(2-((S)-2-amino-3-(5-methoxy-6-(trifluoromethyl)pyridin-3-yl)propylamino)thiazol-5-yl)indolin-2-one] was tested. Which IC50 did it give?
**A.** 50 to 1000 nM

**Q.** For `NC(CNc1ncc(-c2ccc3[nH]c(=O)oc3c2)s1)Cc1ccc(C(F)(F)F)c(F)c1` (stereo not drawn) [Example 181, 6-(2-(2-amino-3-(3-fluoro-4-(trifluoromethyl)phenyl)propylamino)thiazol-5-yl)benzo[d]oxazol-2(3H)-one], which IC50 is on record?
**A.** < 50 nM

**Q.** Which IC50 does the source give for `C[C@@H](c1ccc(C(F)(F)F)nc1)[C@H](N)CNc1ncc(-c2ccc3c(c2)CC(=O)N3)s1` [Example 233, 5-(2-((2S,3S)-2-amino-3-(6-(trifluoromethyl)pyridin-3-yl)butylamino)thiazol-5-yl)indolin-2-one] here?
**A.** < 50 nM

**Q.** `COc1cc(C[C@H](N)CNc2ncc(-c3ccc4[nH]c(=O)oc4c3)s2)ccc1C(F)(F)F` [Example 207, 6-(2-((S)-2-amino-3-(3-methoxy-4-(trifluoromethyl)phenyl)propylamino)thiazol-5-yl)benzo[d]oxazol-2(3H)-one] was tested. Which IC50 did it give?
**A.** < 50 nM

**Q.** With `N[C@H](CNc1ncc(-c2ccc3c(O)nncc3c2)s1)Cc1ccc(C(F)(F)F)cc1` [Example 65, 6-(2-((S)-2-amino-3-(4-(trifluoromethyl)phenyl)propylamino)thiazol-5-yl)phthalazin-1-ol] as the compound, how does the IC50 read?
**A.** 50 to 1000 nM

**Q.** Which IC50 does the source give for `C[C@@H](c1ccccc1)[C@H](N)CNc1ncc(-c2ccc3c(c2)CC(=O)N3)s1` [Example 90, 5-(2-((2S,3S)-2-Amino-3-phenylbutylamino)thiazol-5-yl)indolin-2-one] here?
**A.** 1000 to 10000 nM

**Q.** For `C[C@H](Nc1ncc(-c2ccc3c(c2)CC(=O)N3)s1)[C@@H](N)Cc1ccc(C(F)(F)F)cc1` [Example 234, 5-(2-((2S,3S)-3-amino-4-(4-(trifluoromethyl)phenyl)butan-2-ylamino)thiazol-5-yl)indolin-2-one], which IC50 is on record?
**A.** 1000 to 10000 nM

**Q.** How did the IC50 turn out when `COCc1nc(NC[C@H](Cc2ccc(C(F)(F)F)cc2)NCCN2CCOCC2)sc1-c1nc2ccncc2s1` [Example 34, 4-(Methoxymethyl)-N—((S)-2-(2-morpholinoethylamino)-3-(4-(trifluoromethyl)phenyl)propyl)-5-(thiazolo[5,4-c]pyridin-2-yl)thiazol-2-amine] was run?
**A.** 50 to 1000 nM

**Q.** With `N[C@H](CNc1ncc(-c2ccc3cnccc3c2)s1)Cc1cc(F)cc(F)c1` [Example 161, N—((S)-2-amino-3-(3,5-difluorophenyl)propyl)-5-(isoquinolin-6-yl)thiazol-2-amine] as the compound, how does the IC50 read?
**A.** 50 to 1000 nM

**Q.** For `N[C@H](CNc1nc(-c2ccco2)c(-c2ccc3cnccc3c2)s1)Cc1ccc(C(F)(F)F)cc1` [Example 8, N—((S)-2-amino-3-(4-(trifluoromethyl)phenyl)propyl)-4-(furan-2-yl)-5-(isoquinolin-6-yl)thiazol-2-amine], which IC50 is on record?
**A.** 50 to 1000 nM

**Q.** Which IC50 does the source give for `COc1ccc(C[C@H](N)CNc2ncc(-c3ccc4c(c3)CC(=O)N4)s2)cc1` [Example 67, 5-(2-((S)-2-amino-3-(4-methoxyphenyl)propylamino)thiazol-5-yl)indolin-2-one] here?
**A.** 50 to 1000 nM

**Q.** With `N[C@H](CNc1nc(C2CC2)c(-c2ccc3cnccc3c2)s1)Cc1ccc(C(F)(F)F)cc1` [Example 169] as the compound, how does the IC50 read?
**A.** 50 to 1000 nM

**Q.** `N[C@H](CNc1ncc(-c2nc3ccncc3s2)s1)Cc1cccc(C(F)(F)F)c1` [Example 31, N—((S)-2-amino-3-(3-(trifluoromethyl)phenyl)propyl)-5-(thiazolo[5,4-c]pyridin-2-yl)thiazol-2-amine] was tested. Which IC50 did it give?
**A.** 1000 to 10000 nM

**Q.** How did the IC50 turn out when `CN(C)Cc1nc(NC[C@@H](N)Cc2ccc(C(F)(F)F)cc2)sc1-c1ccc2cnccc2c1` [Example 81, N—((S)-2-Amino-3-(4-(trifluoromethyl)phenyl)propyl)-4-((dimethylamino)methyl)-5-(isoquinolin-6-yl)thiazol-2-amine] was run?
**A.** 50 to 1000 nM

**Q.** How did the IC50 turn out when `NC(CNc1ncc(-c2ccc3c(c2)CC(=O)N3)s1)Cc1ccc(C(F)(F)F)c(F)c1` (stereo not drawn) [Example 179, 5-(2-(-2-amino-3-(3-fluoro-4-(trifluoromethyl)phenyl)propylamino)thiazol-5-yl)indolin-2-one] was run?
**A.** < 50 nM

**Q.** For `N[C@H](CNc1ncc(-c2nc3ccncc3s2)s1)Cc1ccc(Cl)c(Cl)c1` [Example 97, N—((S)-2-Amino-3-(3,4-dichlorophenyl)propyl)-5-(thiazolo[5,4-c]pyridin-2-yl)thiazol-2-amine], which IC50 is on record?
**A.** 50 to 1000 nM

**Q.** Which IC50 does the source give for `CC(O)C#Cc1nc(NC[C@@H](N)Cc2ccc(C(F)(F)F)cc2)sc1-c1ccc2cnccc2c1` (stereo partly drawn) [Example 141, 4-(2-((S)-2-amino-3-(4-(trifluoromethyl)phenyl)propylamino)-5-(isoquinolin-6-yl)thiazol-4-yl)but-3-yn-2-ol] here?
**A.** < 50 nM

**Q.** For `Cc1nc(NC[C@@H](N)Cc2ccc(C(F)(F)F)cc2)sc1-c1nc2ccncc2s1` [Example 24, N—((S)-2-amino-3-(4-(trifluoromethyl)phenyl)propyl)-4-methyl-5-(thiazolo[5,4-c]pyridin-2-yl)thiazol-2-amine], which IC50 is on record?
**A.** 50 to 1000 nM

**Q.** With `NC(CNc1ncc(-c2ccc3c(c2)CC(=O)N3)s1)Cc1ccc(C(F)(F)F)cc1F` (stereo not drawn) [Example 176, 5-(2-(-2-amino-3-(2-fluoro-4-(trifluoromethyl)phenyl)propylamino)thiazol-5-yl)indolin-2-one] as the compound, how does the IC50 read?
**A.** 50 to 1000 nM
